Laboratory results: patent publication US20090181438A1, “OPTIMIZATION OF BIOFUEL PRODUCTION” (THE OHIO STATE UNIVERSITY RESEARCH FOUNDATION, priority 2007, published 2009)

Experiments:
[1] = test system: cultures of Botryococcus braunii; settings: cited from earlier work
[2] = test system: Nannochloropsis sp.; assay type: cell-based
Description: Under simulated outdoor growing conditions (30 ppt, 26-37° C., 14:10 of 1000 umol, F/2) 12 liter aquaria of Nannochloropsis sp., equipped with mixers and pH controlled (˜7.2) CO2 gas input, had 25% of culture volume removed daily which was variably (0-25% of total fraction) extracted of lipids with decane (15 min) and sonic (2 sec) energy, decanted of solvent, then returned to culture, while the remaining untreated fraction (0-25%) was removed, dried and extracted with hexane.

[3] = test system: Nannochloropsis sp. cultures
Description: Variable fractions (0, 10%, 25%, and 50%) of identical 100 mL Nannochloropsis sp. cultures (n=2) were initially (arrows) mixed (15 min) with decane and exposed to an ultrasonic field (2 sec; 40 kHz water bath), decanted of solvent, then grown (F/2, 23° C., 24:0 of 100 μmol, 100 rpm, 33 ppt, 100 mL in 500 mL flasks). Further, variable timed treatments (arrows) at log-phase and stationary phases were also completed.

CCCCCC [hexane]
solvent toxicity / biocompatibility [1]: nontoxic

CCCCCCC [heptane]
solvent toxicity / biocompatibility [1]: nontoxic

CCCCCOCCCCC [dipentyl ether]
solvent toxicity / biocompatibility [1]: toxic

CCCCCCCCCCO [decanol]
solvent toxicity / biocompatibility [1]: toxic

CCCCCCCCCC [decane]
growth rates and resultant culture biomass [2]: augment growth rates and the resultant culture biomass | tolerance of daily exposure to treatment [2]: tolerated | growth rate and resultant algal biomass compared to no treatment [3]: can positively affect growth rate and resultant algal biomass
